Assay results: patent US20240285615A1, “MEDICAMENTS COMPRISING GLYCOSIDASE INHIBITORS” (priority 2021, published 2024)
Read-outs that look alike come from different tables or passages of the source.

How the values were obtained:
[1] = Phase 1 Part 1a: single rising oral doses, fasted, plasma pharmacokinetics; type: in vivo, human; conditions: for AUC(0-inf) / Cmax / Tmax / half-life: human, plasma
From the text: A Randomized, Double-Blind, Placebo-Controlled, Phase 1 Study to Assess the Safety, Tolerability, Pharmacokinetics and Food Effect of Single and Multiple Doses of Orally Administered Compound of Formula (I) in Healthy Adult and Elderly Subjects The study was a single-centre, randomized, placebo-controlled single- and multiple ascending dose study in healthy male and female (no childbearing potential) volunteers aged 18-80 years. Study objectives were safety, tolerability, food effect and pharmacokinetics. Following identification of safe and tolerable single doses in healthy male subjects aged 18-55 years, separate cohorts were dosed to assess food effect. Furthermore, multiple-dose safety, tolerability, pharmacokinetics, CSF drug levels and pharmacodynamics were assessed in elderly (age 55-80 years) male or healthy non-child-bearing potential female volunteers. [table] The single-dose pharmacokinetics of seven, ascending, dose levels of compound of Formula (I) (20, 40, 80, 160, 300, 600 and 1000 mg of compound (I) fasted state) were evaluated in part 1a of a randomized, placebo-controlled, time lagged, parallel/crossover group study in healthy young volunteers Compound (I) pharmacokinetic data were measured in plasma and in urine up to 72 hours post dose.

DSS colitis model = assay: In vivo treatment efficacy on DSS colitis model; conditions: balb/c mice, oral gavage for 21 days, 5% DSS
Method: The dextran sodium sulfate (DSS) is a negatively charged sulfated polysaccharide of approximately 36-50 kDa which induces colitis when administered at 5% (weight/volume) in drinking water for several days (Okayasu I. et al. (1990) Gastroenterology 98:694-702).
Adult (balb/c) mice are randomized and are allowed to a period of acclimatization for one week. After this, the compound of formula (I) or vehicle is administered for 21 days by oral gavage, starting 2 weeks before the DSS treatment (Day −14) and continuing during DSS treatment and until the end of the experiment (Day +9). At Day 0, animals are getting access to a 5% (weight/volume) DSS solution in drinking water until Day +5. The DSS solution is then removed and replaced by drinking water for 4 more days until Day +9. From Day 0 until the end of the experiment […], animals are monitored daily for clinical signs of colitis including bodyweight loss, loose stools and/or diarrhoea and presence of occult or gross blood in the stools. At Day +12 or when animals reach humane endpoints, colons are dissected out, to measure their lengths and observe their content. A sample of distal colon is processed for histopathology. […]
Histological injury and inflammation are scored as described in Gilbert et al (2012) (Gilbert S. et al. (2012) EMBO Mol. Med. 4: 109-124). […]

[2] = Phase 1 Part 2: multiple BID doses for 12 days, plasma pharmacokinetics; type: in vivo, human; conditions: for AR (accumulation ratio, AUC0-tau at Day 12/AUC0-tau at Day 1) / concentration at 12 day / Cmax / Tmax / half-life / AUC: plasma; for concentration at 12 day / Cmax / Tmax / half-life / AUC: both sexes, human; for concentration at 12 day: in vivo, read-out: Cmin; for Cmax / Tmax / half-life / AUC: oral; for Tmax: median (min, max); for AUC: read-out: AUC0-tau
Method: The study was a single-centre, randomized, placebo-controlled single- and multiple ascending dose study in healthy male and female (no childbearing potential) volunteers aged 18-80 years. Study objectives were safety, tolerability, food effect and pharmacokinetics. Following identification of safe and tolerable single doses in healthy male subjects aged 18-55 years, separate cohorts were dosed to assess food effect. Furthermore, multiple-dose safety, tolerability, pharmacokinetics, CSF drug levels and pharmacodynamics were assessed in elderly (age 55-80 years) male or healthy non-child-bearing potential female volunteers.
Day 1: Twice a day (BID) dosing. Day 2: No dosing. Day 3-11: 9 days of BID dosing. Day 12: one dose in the morning.

[3] = single oral dose 20 mg, fasted, healthy male subjects, arithmetic mean
[4] = single oral dose 40 mg, fasted, healthy male subjects, arithmetic mean
[5] = single oral dose 80 mg, fasted, healthy male subjects, arithmetic mean
[6] = single oral dose 160 mg, fasted, healthy male subjects, arithmetic mean
[7] = single oral dose 300 mg, fasted, healthy male subjects, arithmetic mean
[8] = single oral dose 600 mg, fasted, healthy male subjects, arithmetic mean
[9] = single oral dose 1000 mg, fasted, healthy male subjects, arithmetic mean
[10] = 100 mg BID, Day 12, elderly subjects, arithmetic mean
[11] = 250 mg BID, Day 12, elderly subjects, arithmetic mean
[12] = 500 mg BID, Day 12, elderly subjects, arithmetic mean

CC(=O)Nc1nnc(N2CCN([C@@H](C)c3ccc4c(c3)OCO4)CC2)s1 [Compound (I)]
deviation of dose normalized AUC ([1]; AUC over 24 hours, dose levels 300, 600 and 1000 mg): ≤ 10%
AUC(0-inf) [1, 3]: 473 ng·h/mL
Cmax [1, 3]: 227 ng/mL
Tmax ([1]; single oral dose 20 mg, fasted, healthy male subjects, median (min, max), read-out: Tmax): 0.5 h
AUC(0-inf) [1, 4]: 1160 ng·h/mL
Cmax [1, 4]: 468 ng/mL
Tmax ([1]; single oral dose 40 mg, fasted, healthy male subjects, median (min, max), read-out: Tmax): 1 h
AUC(0-inf) [1, 5]: 3270 ng·h/mL
Cmax [1, 5]: 1370 ng/mL
Tmax ([1]; single oral dose 80 mg, fasted, healthy male subjects, median (min, max), read-out: Tmax): 0.5 h
AUC(0-inf) [1, 6]: 7010 ng·h/mL
Cmax [1, 6]: 1880 ng/mL
Tmax ([1]; single oral dose 160 mg, fasted, healthy male subjects, median (min, max), read-out: Tmax): 1.5 h
AUC(0-inf) [1, 7]: 15400 ng·h/mL
Cmax [1, 7]: 3990 ng/mL
Tmax ([1]; single oral dose 300 mg, fasted, healthy male subjects, median (min, max), read-out: Tmax): 1.25 h
AUC(0-inf) [1, 8]: 33300 ng·h/mL
Cmax [1, 8]: 7180 ng/mL
Tmax ([1]; single oral dose 600 mg, fasted, healthy male subjects, median (min, max), read-out: Tmax): 1.25 h
AUC(0-inf) [1, 9]: 50200 ng·h/mL
Cmax [1, 9]: 10100 ng/mL
Tmax ([1]; single oral dose 1000 mg, fasted, healthy male subjects, median (min, max), read-out: Tmax): 1.5 h
half-life ([1]; male, oral, single dose 20 to 1000 mg, read-out: terminal half-life (t½), range of means at the different dose levels): 3.9 to 10.7 h
half-life ([1]; male, oral, single dose 20 mg to 1000 mg, read-out: mean terminal half-life, range over the 7 dose levels): 4.59 to 8.84 h
Tmax ([1]; male, oral, single dose 20 mg to 1000 mg, read-out: median Tmax, range over dose levels): 0.5 to 1.5 h
half-life ([1]; male, po, 20 mg, single oral dose 20 mg, fasted, healthy male subjects, arithmetic mean, read-out: t1/2 (converted)): 4.59 h
half-life ([1]; male, po, 40 mg, single oral dose 40 mg, fasted, healthy male subjects, arithmetic mean, read-out: t1/2 (converted)): 5.95 h
half-life ([1]; male, po, 80 mg, single oral dose 80 mg, fasted, healthy male subjects, arithmetic mean, read-out: t1/2 (converted)): 8.84 h
half-life ([1]; male, po, 160 mg, single oral dose 160 mg, fasted, healthy male subjects, arithmetic mean, read-out: t1/2 (converted)): 6.83 h
half-life ([1]; male, po, 300 mg, single oral dose 300 mg, fasted, healthy male subjects, arithmetic mean, read-out: t1/2 (converted)): 7.95 h
half-life ([1]; male, po, 600 mg, single oral dose 600 mg, fasted, healthy male subjects, arithmetic mean, read-out: t1/2 (converted)): 6.07 h
half-life ([1]; male, po, 1000 mg, single oral dose 1000 mg, fasted, healthy male subjects, arithmetic mean, read-out: t1/2 (converted)): 6.6 h
dose proportionality of Cmax ([1]; single dose, dosing range 20 mg to 1000 mg): Dose proportionality was observed
dose proportionality of AUCs ([1]; single dose, dosing range 300 mg to 1000 mg): Dose proportionality was observed
disease score (body weight loss, stool, blood in feces, general appearance) (DSS colitis model): decrease in the disease score
tissue inflammation by histology examination (DSS colitis model): significant decrease of tissue inflammation
AR (accumulation ratio, AUC0-tau at Day 12/AUC0-tau at Day 1) [2, 10]: 1.35
AR (accumulation ratio, AUC0-tau at Day 12/AUC0-tau at Day 1) [2, 11]: 1.36
AR (accumulation ratio, AUC0-tau at Day 12/AUC0-tau at Day 1) [2, 12]: 1.25
dose proportionality of Cmax, AUC0-tau and AUC12-24 ([2]; Day 1, BID 100 mg to BID 500 mg): Dose proportionality was observed
dose proportionality of Cmax, AUC0-tau and AUC0-48 ([2]; Day 12, BID 100 mg to BID 500 mg): Dose proportionality was observed
concentration at 12 day [2, 10]: 84 ng/mL
concentration at 12 day [2, 11]: 308 ng/mL
concentration at 12 day [2, 12]: 743 ng/mL
Cmax ([2]; 100 mg, 100 mg BID, Day 1 (first dose), elderly subjects, arithmetic mean): 1450 ng/mL
Tmax ([2]; 100 mg, 100 mg BID, Day 1 (first dose), elderly subjects): 0.75 h
half-life ([2]; 100 mg, 100 mg BID, Day 1, elderly subjects, arithmetic mean, read-out: t1/2 (converted)): 3.9 h
AUC ([2]; 100 mg, 100 mg BID, Day 1, tau 12 h, elderly subjects, arithmetic mean): 4120 ng·h/mL
Cmax ([2]; 100 mg, 100 mg BID, Day 12, elderly subjects, arithmetic mean): 1340 ng/mL
half-life ([2]; 100 mg, 100 mg BID, Day 12, elderly subjects, arithmetic mean, read-out: t1/2 (converted)): 7.84 h
Tmax ([2]; 100 mg, 100 mg BID, Day 12, elderly subjects): 2.25 h
AUC ([2]; 100 mg, 100 mg BID, Day 12, tau 12 h, elderly subjects, arithmetic mean): 5440 ng·h/mL
Cmax ([2]; 250 mg, 250 mg BID, Day 1 (first dose), elderly subjects, arithmetic mean): 3630 ng/mL
Tmax ([2]; 250 mg, 250 mg BID, Day 1 (first dose), elderly subjects): 0.5 h
half-life ([2]; 250 mg, 250 mg BID, Day 1, elderly subjects, arithmetic mean, read-out: t1/2 (converted)): 4.74 h
AUC ([2]; 250 mg, 250 mg BID, Day 1, tau 12 h, elderly subjects, arithmetic mean): 10700 ng·h/mL
Cmax ([2]; 250 mg, 250 mg BID, Day 12, elderly subjects, arithmetic mean): 3740 ng/mL
half-life ([2]; 250 mg, 250 mg BID, Day 12, elderly subjects, arithmetic mean, read-out: t1/2 (converted)): 10.2 h
Tmax ([2]; 250 mg, 250 mg BID, Day 12, elderly subjects): 1 h
AUC ([2]; 250 mg, 250 mg BID, Day 12, tau 12 h, elderly subjects, arithmetic mean): 14300 ng·h/mL
Cmax ([2]; 500 mg, 500 mg BID, Day 1 (first dose), elderly subjects, arithmetic mean): 6440 ng/mL
Tmax ([2]; 500 mg, 500 mg BID, Day 1 (first dose), elderly subjects): 1.02 h
half-life ([2]; 500 mg, 500 mg BID, Day 1, elderly subjects, N=1, read-out: t1/2 (converted)): 6.19 h
AUC ([2]; 500 mg, 500 mg BID, Day 1, tau 12 h, elderly subjects, arithmetic mean): 24300 ng·h/mL
Cmax ([2]; 500 mg, 500 mg BID, Day 12, elderly subjects, arithmetic mean): 6670 ng/mL
half-life ([2]; 500 mg, 500 mg BID, Day 12, elderly subjects, arithmetic mean, read-out: t1/2 (converted)): 10.7 h
Tmax ([2]; 500 mg, 500 mg BID, Day 12, elderly subjects): 1.5 h
AUC ([2]; 500 mg, 500 mg BID, Day 12, tau 12 h, elderly subjects, arithmetic mean): 30200 ng·h/mL
half-life ([2]; 100 to 500 mg BID, single dose and multiple dose conditions, read-out: terminal half-life (t½), range of means): 3.9 to 10.7 h
